Measured values: patent publication US8648066B2 (Exelixis, Inc., priority 2009, dated 2014)

Target: mTOR/GbL/Raptor (mTORC1) (Homo sapiens, UniProt P42345)
Assay: mTOR/GbL/Raptor (mTORC1) ELISA assay
Format: biochemical
Details: phosphorylation of 4E-BP1; 0.2 nM mTORC1, 10 μM ATP; read-out: IC50 in this assay (mTORC1 ELISA)
In short: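 ELISA read-out: phospho-4E-BP1 captured on Ni-chelate plates and detected with anti-phospho antibody plus HRP-anti-IgG luminescence. The kinase step ran 120 min at ambient temperature with 0.2 nM human mTORC1, 10 µM ATP, 50 nM His-4E-BP1, 10 mM MnCl2, pH 7.2 HEPES.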

IC50 [nM]	SMILES
≤ 10	CCNc1nc2ncc(-c3ccc4c(c3)CN(c3ncnc(C)c3Cc3ccc(F)cc3)CCO4)cc2[nH]1 [Example 250, N-ethyl-6-(4-{5-[(4-fluorophenyl)methyl]-6-methylpyrimidin-4-yl}-2,3,4,5-tetrahydro-1,4-benzoxazepin-7-yl)-1H-imidazo[4,5-b]pyridin-2-amine]
250 to 1000	COc1ccc(-c2ccc3c(c2)CN(c2nc(CN(C)C)nc4c2CC(C)(C)CC4)CCO3)cc1OC(F)F [Example 649, 1-{4-[7-{3-[(difluoromethyl)oxy]-4-(methyloxy)phenyl}-2,3-dihydro-1,4-benzoxazepin-4(5H)-yl]-6,6-dimethyl-5,6,7,8-tetrahydroquinazolin-2-yl}-N,N-dimethylmethanamine]
≤ 10	CC1(C)CCc2ncnc(N3CCOc4ccc(-c5cnc(N)c(S(=O)(=O)N6CC[C@H](N)C6)c5)cc4C3)c2C1 [Example 452, 3-{[(3S)-3-aminopyrrolidin-1-yl]sulfonyl}-5-[4-(6,6-dimethyl-5,6,7,8-tetrahydroquinazolin-4-yl)-2,3,4,5-tetrahydro-1,4-benzoxazepin-7-yl]pyridin-2-amine]
10 to 50	CC(C)NS(=O)(=O)c1cc(-c2ccc3c(c2)CN(c2ncnc4c2CC(C)(C)CC4)CCO3)cnc1N [Example 364, 2-amino-5-[4-(6,6-dimethyl-5,6,7,8-tetrahydroquinazolin-4-yl)-2,3,4,5-tetrahydro-1,4-benzoxazepin-7-yl]-N-(1-methylethyl)pyridin-3-sulfonamide]
250 to 1000	CC1(C)CCc2ncnc(N3CCOc4ccc(-c5cnc(N6CC[C@H](N)C6)c(S(=O)(=O)N6CC[C@H](N)C6)c5)cc4C3)c2C1 [Example 306, (3S)-1-({2-[(3S)-3-aminopyrrolidin-1-yl]-5-[4-(6,6-dimethyl-5,6,7,8-tetrahydroquinazolin-4-yl)-2,3,4,5-tetrahydro-1,4-benzoxazepin-7-yl]pyridin-3-yl}sulfonyl)pyrrolidin-3-amine]
≤ 10	CC[C@H]1CCc2c(ncnc2N2CCOc3ccc(-c4cnc5nc(N)[nH]c5c4)cc3C2)C1 [Example 537, 6-{4-[(7S)-7-ethyl-5,6,7,8-tetrahydroquinazolin-4-yl]-2,3,4,5-tetrahydro-1,4-benzoxazepin-7-yl}-1H-imidazo[4,5-b]pyridin-2-amine]
250 to 1000	CC1=Cc2ncnc(N3CCOc4ccc(-c5cnc(N)c(S(=O)(=O)NCC6CCN(C)CC6)c5)cc4C3)c2CC1(C)C [Example 420, 2-amino-N-[(1-methylpiperidin-4-yl)methyl]-5-[4-(6,6,7-trimethyl-5,6-dihydroquinazolin-4-yl)-2,3,4,5-tetrahydro-1,4-benzoaxepin-7-yl]pyridine-3-sulfonamide]
10 to 50	Cc1nc2ncc(-c3ccc4c(c3)CN(c3nc(CNC(C)(C)C)nc5c3CC(C)(C)CC5)CCO4)cc2[nH]1 [Example 595, N-({6,6-dimethyl-4-[7-(2-methyl-1H-imidazo[4,5-b]pyridin-6-yl)-2,3-dihydro-1,4-benzoxazepin-4(5H)-yl]-5,6,7,8-tetrahydroquinazolin-2-yl}methyl)-2-methylpropan-2-amine]
250 to 1000	CCNc1nc(N2CCOc3ccc(-c4ccc5nc(NCC)[nH]c5c4)cc3C2)c2ccccc2n1 [Example 270, N-ethyl-4-{7-[2-(ethylamino)-1H-benzimidazol-6-yl]-2,3-dihydro-1,4-benzoxazepin-4(5H)-yl}quinazolin-2-amine]
50 to 250	COc1ccc2c(N3CCOc4ccc(-c5ccc(-c6c[nH]cn6)cc5)cc4C3)nc(C)nc2c1 [Example 570, 7-[4-(1H-imidazol-4-yl)phenyl]-4-[2-methyl-7-(methyloxy)quinazolin-4-yl]-2,3,4,5-tetrahydro-1,4-benzoxazepine]
250 to 1000	CCNc1nc2ccc(-c3ccc4c(c3)CN(c3nc(CC)nc5cc(OC)ccc35)CCO4)cc2[nH]1 [Example 279, N-ethyl-6-{4-[2-ethyl-7-(methyloxy)quinazolin-4-yl]-2,3,4,5-tetrahydro-1,4-benzoxazepin-7-yl}-1H-benzimidazol-2-amine]
10 to 50	COCCOCc1nc2c(c(N3CCOc4ccc(-c5ccc6nc(C)[nH]c6c5)cc4C3)n1)CC(C)(C)CC2 [Example 494, 4-[6,6-dimethyl-2-({[2-(methyloxy)ethyl]oxy}methyl)-5,6,7,8-tetrahydroquinazolin-4-yl]-7-(2-methyl-1H-benzimidazol-6-yl)-2,3,4,5-tetrahydro-1,4-benzoxazepine]
250 to 1000	Cc1nc2ccc(-c3ccc4c(c3)CN(c3nc(CN(C)C)nc(C)c3CC3CC3)CCO4)cc2[nH]1 [Example 345, 1-{5-(cyclopropylmethyl)-4-methyl-6-[7-(2-methyl-1H-benzimidazo-6-yl)-2,3-dihydro-1,4-benzoxazepin-4(5H)-yl]pyrimidin-2-yl}-N,N-dimethylmethanamine]
250 to 1000	Cc1nc(CN(C)C)nc(N2CCOc3ccc(-c4cnc5sc(N)nc5c4)cc3C2)c1Br [Example 673, 6-(4-{5-bromo-2-[(dimethylamino)methyl]-6-methylpyrimidin-4-yl}-2,3,4,5-tetrahydro-1,4-benzoxazepin-7-yl)[1,3]thiazolo[5,4-b]pyridin-2-amine]
250 to 1000	Cc1nc2ncc(-c3ccc4c(c3)CN(c3nc(CN(C)C)nc5ccc(F)cc35)CCO4)cc2[nH]1 [Example 359, 1-{6-fluoro-4-[7-(2-methyl-1H-imidazo[4,5-b]pyridin-6-yl)-2,3-dihydro-1,4-benzoxazepin-4(5H)-yl]quinazolin-2-yl}-N,N-dimethylmethanamine]
1000 to 2000	Cc1nc2ccc(-c3ccc4c(c3)CN(c3ncncc3C)CCO4)cc2[nH]1 [Example 44, 7-(2-methyl-1H-benzimidazol-6-yl)-4-(5-methylpyrimidin-4-yl)-2,3,4,5-tetrahydro-1,4-benzoxazepine]
250 to 1000	Cc1nc2c(c(N3CCOc4ccc(-c5cnc(N)c(S(=O)(=O)N[C@@H]6CCN(C)C6)c5)cc4C3)n1)CC(C)(C)CC2 [Example 421, 2-amino-N-[(3R)-1-methylpyrrolidin-3-yl]-5-[4-(2,6,6-trimethyl-5,6,7,8-tetrahydroquinazolin-4-yl)-2,3,4,5-tetrahydro-1,4-benzoxazepin-7-yl]pyridine-3-sulfonamide]
1000 to 2000	CN(C)c1nc2ccc(-c3ccc4c(c3)CN(c3ccnc5ccccc35)CCO4)cc2[nH]1 [Example 195, N,N-dimethyl-6-(4-quinolin-4-yl-2,3,4,5-tetrahydro-1,4-benzoxazepin-7-yl)-1H-benzimidazol-2-amine]
≤ 10	CC1(C)CCc2ncnc(N3CCOc4ccc(-c5cnc(N)c(S(=O)(=O)NCC(O)CO)c5)cc4C3)c2C1 (centres unmarked) [Example 402, 2-amino-N-(2,3-dihydroxypropyl)-5-[4-(6,6-dimethyl-5,6,7,8-tetrahydroquinazolin-4-yl)-2,3,4,5-tetrahydro-1,4-benzoxazepin-7-yl]pyridine-3-sulfonamide]
≥ 2000	COc1ccc2c(N3CCOc4ccc(-c5ccc6[nH]c(=O)[nH]c6c5)cc4C3)nc(C)nc2c1 [Example 296, 5-{4-[2-methyl-7-(methyloxy)quinazolin-4-yl]-2,3,4,5-tetrahydro-1,4-benzoxazepin-7-yl}-1,3-dihydro-2H-benzimidazol-2-one]
≤ 10	CC1(C)CCc2ncnc(N3CCOc4ccc(-c5ccc(-c6ncc[nH]6)cc5)cc4C3)c2C1 [Example 213, 4-(6,6-dimethyl-5,6,7,8-tetrahydroquinazolin-4-yl)-7-[4-(1H-imidazol-2-yl)phenyl]-2,3,4,5-tetrahydro-1,4-benzoxazepine]
≤ 10	CC1(C)CCc2ncnc(N3CCOc4ccc(-c5cnc(N)c(S(=O)(=O)NCCO)c5)cc4C3)c2C1 [Example 371, 2-amino-5-[4-(6,6-dimethyl-5,6,7,8-tetrahydroquinazolin-4-yl)-2,3,4,5-tetrahydro-1,4-benzoxazepin-7-yl]-N-(2-hydroxyethyl)pyridine-3-sulfonamide]
10 to 50	COc1ccc2ncnc(N3CCOc4ccc(-c5cnc6nc(N)[nH]c6c5)cc4C3)c2c1 [Example 182, 6-{4-[6-(methyloxy)quinazolin-4-yl]-2,3,4,5-tetrahydro-1,4-benzoxazepin-7-yl}-1H-imidazo[4,5-b]pyridin-2-amine]
50 to 250	CC1(C)CCc2ncnc(N3CCOc4ccc(-c5cnc(N)c(S(=O)(=O)N[C@H]6CC[C@H](N)CC6)c5)cc4C3)c2C1 [Example 416, 2-amino-N-(trans-4-aminocyclohexyl)-5-[4-(6,6-dimethyl-5,6,7,8-tetrahydroquinazolin-4-yl)-2,3,4,5-tetrahydro-1,4-benzoxazepin-7-yl]pyridine-3-sulfonamide]
≤ 10	CNCc1nc2c(c(N3CCOc4ccc(-c5cnc6nc(C)[nH]c6c5)cc4C3)n1)CC(C)(C)CC2 [Example 354, 1-{6,6-dimethyl-4-[7-(2-methyl-1H-imidazo[4,5-b]pyridin-6-yl)-2,3-dihydro-1,4-benzoxazepin-4(5H)-yl]-5,6,7,8-tetrahydroquinazolin-2-yl}-N-methylmethanamine]
10 to 50	Cc1ncnc(N2CCOc3ccc(-c4ccc5nc(N)ncc5c4)cc3C2)c1Cc1ccc(F)cc1 [Example 143, 6-(4-{5-[(4-fluorophenyl)methyl]-6-methylpyrimidin-4-yl}-2,3,4,5-tetrahydro-1,4-benzoxazepin-7-yl)quinazolin-2-amine]
≤ 10	Cc1nc(CN(C)C)nc(N2CCOc3ccc(-c4ccc5[nH]c(CF)nc5c4)cc3C2)c1Cc1ccc(F)cc1 [Example 321]
≤ 10	CC1(C)CCc2ncnc(N3CCOc4ccc(-c5cnc6nc[nH]c6c5)cc4C3)c2C1 [Example 221, 4-(6,6-dimethyl-5,6,7,8-tetrahydroquinazolin-4-yl)-7-(1H-imidazo[4,5-b]pyridin-6-yl)-2,3,4,5-tetrahydro-1,4-benzoxazepine]
≤ 10	Cc1nc2ccc(-c3ccc4c(c3)CN(c3ncnc(C)c3Cc3ccc(F)c(F)c3)CCO4)cc2[nH]1 [Example 89, 4-{5-[(3,4-difluorophenyl)methyl]-6-methylpyrimidin-4-yl}-7-(2-methyl-1H-benzimidazol-6-yl)-2,3,4,5-tetrahydro-1,4-benzoxazepine]
